Reference: patent US6559158B1, “Use of methylnaltrexone and related compounds to treat chronic opioid use side affects” (UR Labs, Inc., priority 1997, dated 2003)

Test system: morphine-induced changes in oral-cecal transit time
Assay: Example 4: morphine-induced delay of oral-cecal transit time in subjects given opioids non-chronically
Type: in vivo, human
Details: placebo plus 0.05 mg/kg morphine, 12 subjects, mean±SD; baseline 104.6±31.1; p<0.01
Experimental: Sessions were separated by at least 1 week. Each session lasted approximately 7 hours, and the subjects received one of three injections: (1) placebo plus placebo, (2) placebo plus 0.05 mg/kg morphine, or (3) 0.45 mg/kg methylnaltrexone plus 0.05 mg/kg morphine. Injection I was given at the first session, and the subjects were blinded to the medication. Injections 2 and 3 were given in a random order, and the subjects and observers were blinded to the medication. Injection assignments were prepared by random selection on a computer and were sealed in envelopes.
After completion of the above three injections, we asked six of the subjects, beginning with those who had completed the study last, to return for a fourth injection (0.45 mg/kg methylnaltrexone plus 0.1 mg/kg morphine). This was done to evaluate the effects of methylnaltrexone with a higher does of morphine.
Results of the hydrogen breath test after different injections were analyzed with the use of the Wilcoxon matched-pairs signed-rank test, with p<0.05 considered to be statistically significant.

For `CN1CC[C@]23c4c5ccc(O)c4O[C@H]2[C@@H](O)C=C[C@H]3[C@H]1C5.O=S(=O)(O)O` [Morphine, morphine sulfate], the oral-cecal transit time was 163.3 ± 39.8 min.
